One assay has as its target T1, FimHtrCl#4 (Escherichia coli, UniProt P08191, G94E/N91S/S99N/V48A).
T1 construct: coding for the lectin domain of FimH (residues 1-158) with a C-terminal 6-histidine tag; made in house; host or cells: E. coli HB101 (lacking the fim operon), periplasmic extract, plasmid pMAS146
As to the kind of experiment: biochemical. It counts as binding, E. coli UPEC (Cl#4) strain. As to the method: (§1) To investigate if these variations reflect differences in sugar binding at the molecular level, the dissociation constants of a series of mannosides for the FimH lectin domain from a fecal (F18) and from a UPEC (Cl#4) strain were determined. […] For comparison, binding to FimHtrJ96 was also investigated. Both F18 and Cl#4 FimH lectin domains were cloned, expressed, and purified in the same way as FimHtrJ96 (Schembri et al., 2000). These two lectin domains differ from the lectin domain of FimHJ96 by substitutions Val27Ala, Asn70Ser and Ser78Asn. In addition, FimHCl#4 differs from the other two variants by a Gly73Glu substitution. […] Five different tri-mannosides corresponding to high-mannose substructures were synthesized, and their binding to FimHtrJ96, FimHtrF18 and FimHtrCl#4 measured using our [^3H]-mannose displacement assay (Table 3). Alpha-D-mannose binding was first directly measured for each of the FimH variants.
(§2) [^3H]alpha-D-mannose was obtained from Amersham. […] Syntheses of tri-mannosides was as reported earlier by Oscarson and co-workers (1993). Weighed amounts of tri-mannosides were dissolved in double distilled water to give stock solutions of 0.87 M man-(1,2)-man-(1,2)-man, 0.25 M man-(1,2)-man-(1,3)-man, 0.27 M man-(1,2)-man-(1,6)-man, 0.30 M man-(1,3)-man-(1,6)-man, 0.13 M man-(1,6)-man-(1,6)-man. Similarly, alkyl mannosides were dissolved in double distilled water to give stock solutions of 100 mM methyl mannoside, 59.8 mM ethyl mannoside, 45.9 mM propyl mannoside, 51.9 mM butyl mannoside, 17.3 mM pentyl mannoside, 20.8 mM hexyl mannoside, 15.3 mM heptyl mannoside, 15.2 mM octyl mannoside. pNPalphaMan and MeUmbalphaMan (6 mg each) were dissolved in 20 μl DMSO and diluted to 20 mM using double distilled water. Binding experiments were performed using six different concentrations of [^3H]-alpha-D-mannose (final concentrations 43.5 μM, 29.0 μM, 19.3 μM, 12.9 μM, 8.6 μM, 5.7 μM). FimHtrJ96 obtained by growing bacteria in minimal medium was used in all binding experiments. 180 μl protein at a concentration of about 500 nM was mixed with 20 μl of the radioactive ligand, and incubated at 37° C. for 20 min. To separate free ligand from bound, the mixture was rapidly filtrated through a Protran BA 85 Cellulose-nitrate filter (Schleicher & Schuell, Dassel, Germany), and washed once with 1 ml of ice-cold 1× PBS (phosphate buffered saline). Filter-bound radioactivity was measured by scintillation spectrometry within 24 hours. The displacement experiments were performed using six different concentrations (final concentrations in the range 0.0˜43.5 μM) of the inhibitor, in the presence of 43.5 μM [^3H]-alpha-D-mannose. 20 μl radioactive ligand, 20 μl inhibitor at decreasing concentrations, and 160 μl protein (500 nM) were mixed, and the experiments performed as above. All experiments were performed in duplicates. For determination of KD for α-D-mannose, a hyperbolic curve (y=P1x/(P2+x), where P2=KD) was fitted to the data. For the displacement experiments, the curve y=P1/(P2+x), where P2 is the concentration of the inhibitor displacing 50% of the labelled ligand, [I]0.5 was used instead. To calculate the inhibitor dissociation constant (KI) the Cheng & Prusoff equation (KI=[I]0.5/([L]/KL+1); KL is the constant of dissociation for the ligand) (Cheng and Prusoff, 1973), was used when both the concentration of the radioactive ligand (L) and the displacing agent (I) are in excess over the protein (LT>>PT;IT>>PT, T indicates total concentration). […] A plot of IT/((1−Y)*(LT/KL)−Y) against 1/Y gives a straight line with a slope of KI.

The target of the next assay is T2, FimHtrF18 (Escherichia coli, UniProt P08191, N91S/S99N/V48A).
T2 construct: coding for the lectin domain of FimH (residues 1-158) with a C-terminal 6-histidine tag; made in house; host or cells: E. coli HB101 (lacking the fim operon), periplasmic extract, plasmid pPKL316
The experiment in a line: biochemical. It is filed as binding, E. coli fecal (F18) strain. As to the method:
as §1, §2

The target in the next assay is T3, FimC:FimH complex (Escherichia coli, UniProt P08191).
T3 construct: lectin domain (residues 1-158) is joined to a carboxy-terminal pilin domain (residues 159-279)
As to the kind of experiment: Binding of alpha-D-mannose to full length FimH in FimC:FimH complex. Set-up: species or system E. coli. As to the method:
To eliminate the possibility of different binding strength for full length FimH and FimHtrJ96, the binding of alpha-D-mannose to FimC:FimH complex was also measured. […] The inhibition of [^3H]-mannose binding was used in a displacement assay to determine the dissociation constant for a synthetic butyl mannoside by measuring the amount of [^3H]-mannose bound to the protein in the presence of increasing amounts of the inhibitor (FIG. 1B). […] To investigate the effect of sequential addition of methyl groups to the O1 oxygen of D-mannose, a series of alkyl mannosides were synthesized and the dissociation constants determined using the [^3H]-mannose displacement assay and by surface plasmon resonance (Table 1).

T1 sequence (P08191 22-179 V48A/N91S/G94E/S99N): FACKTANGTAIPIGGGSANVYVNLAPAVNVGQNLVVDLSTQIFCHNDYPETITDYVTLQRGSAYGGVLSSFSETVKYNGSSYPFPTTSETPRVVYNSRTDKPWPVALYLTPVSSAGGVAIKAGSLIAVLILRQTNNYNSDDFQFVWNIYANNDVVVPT
T2 sequence (P08191 22-179 V48A/N91S/S99N): as the sequence (P08191 22-179 V48A/N91S/G94E/S99N) above, with E73G counted along it
T3 sequence (P08191 22-300): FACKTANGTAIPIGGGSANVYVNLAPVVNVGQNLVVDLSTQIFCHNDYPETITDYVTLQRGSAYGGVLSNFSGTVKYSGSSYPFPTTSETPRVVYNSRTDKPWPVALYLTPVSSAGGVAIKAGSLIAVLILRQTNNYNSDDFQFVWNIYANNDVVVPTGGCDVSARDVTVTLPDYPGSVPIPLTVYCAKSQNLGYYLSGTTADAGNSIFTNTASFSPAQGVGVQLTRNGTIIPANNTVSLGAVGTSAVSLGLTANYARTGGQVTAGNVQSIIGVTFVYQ
T3 sequence (P31697 37-241, further chain): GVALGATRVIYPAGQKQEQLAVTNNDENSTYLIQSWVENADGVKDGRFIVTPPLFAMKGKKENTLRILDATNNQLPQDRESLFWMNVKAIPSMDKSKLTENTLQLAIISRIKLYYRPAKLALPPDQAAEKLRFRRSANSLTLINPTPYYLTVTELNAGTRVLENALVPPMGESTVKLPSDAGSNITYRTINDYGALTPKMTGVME

On to `OC[C@H]1O[C@H](O)[C@@H](O)[C@@H](O)[C@@H]1O` [Mannose, α-D-mannose], for which the equilibrium dissociation constant (Kd) at FimHtrCl#4 (KD CI#4, Table 3, [3H]-mannose displacement assay (mannose measured directly)) is 10.7 µM; on FimHtrCl#4 (KD, mannose binding measured directly, FimHtrCl#4) it was 11 µM; on FimHtrF18 (KD F18, Table 3, [3H]-mannose displacement assay (mannose measured directly)) it was 9.8 µM; on FimHtrF18 (KD, mannose binding measured directly, FimHtrF18), 10 µM; at FimC:FimH complex, 2.3 µM. Moreover, on FimHtrCl#4 (Table 3, calculated from KD), the “ΔG° CI#4” value was -7.0 kcal/mol. In addition, the “ΔG° F18” value at FimHtrF18 (Table 3, calculated from KD) was -7.1 kcal/mol.
